Source: patent US11974990B2, “TXNIP-TRX complex inhibitors and methods of using the same” (City of Hope, priority 2018, dated 2024)
“Also recorded” adds a separate entry of the source.

Legend:
purified TXNIP = molecular target: T1, purified TXNIP (Homo sapiens, UniProt Q9H3M7); experiment: DARTS assay with purified TXNIP and TRX1 proteins; type: binding; settings: purified TXNIP + TRX1, protease, 7 minutes (FIG. 16)
T1 construct: purchased LSBio (TXNIP); Sigma (TRX1); host or cells: E. coli (TXNIP)
T1 sequence (Q9H3M7 1-391): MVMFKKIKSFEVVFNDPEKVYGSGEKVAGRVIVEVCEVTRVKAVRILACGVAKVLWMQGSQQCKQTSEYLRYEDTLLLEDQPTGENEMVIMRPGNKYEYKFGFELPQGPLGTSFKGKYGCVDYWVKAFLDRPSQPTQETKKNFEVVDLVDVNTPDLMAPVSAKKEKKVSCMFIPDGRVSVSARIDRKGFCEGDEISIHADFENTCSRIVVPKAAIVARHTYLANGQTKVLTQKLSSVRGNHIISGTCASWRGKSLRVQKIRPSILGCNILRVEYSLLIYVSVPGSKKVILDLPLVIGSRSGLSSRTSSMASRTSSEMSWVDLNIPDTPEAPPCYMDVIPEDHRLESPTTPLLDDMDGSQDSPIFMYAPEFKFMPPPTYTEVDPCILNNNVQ
Procedure: FIG. 16. […] Purified TRX and TXNIP proteins and C1 (at the indicated concentrations) were mixed together. Protease was added. Aliquots were withdrawn at 7 minutes and loaded on 10% SDS gels. C1: compound 1; control: without protease.
To further confirm that C1 is able to protect TXNIP from proteolysis in the presence of TXNIP+TRX1, we performed DARTS assay using pure TXNIP protein (LSBio) and TRX1 protein (Sigma). The TRX1 protein we employed is also usually used for TRX1 activity assays. In contrast, the TXNIP protein is generated by E. coli and might not be in the active form. Therefore, we re-natured the protein prior to use in the DARTS assay.

TXNIP mRNA = TXNIP mRNA expression (RT-PCR) in primary human pancreatic islets; type: cell-based; settings: human pancreatic islets (500 IEQ), 25 mM glucose, 48 h (FIG. 18)
Procedure: FIG. 18. […] Human pancreatic islets (500 IEQ) were cultured with PIM(R) (Prodo Labs) in 25 mM glucose with C1 as indicated for 48 h. Total RNA was collected. RT-PCR was performed in triplicate and data shown are the mean+SEM. Statistical analysis was performed using one-way ANOVA: *<0.0001.
RNA extraction and quantitative RT-PCR. RNA was extracted using the Direct-zol™ RNA MiniPrep Plus (Zymo Research). Reverse transcription of RNA samples into cDNA was performed using the GeneAmp RNA PCR Kit (Applied Biosystems), dNTP (from Roche Applied Science), Rnase inhibitor, MULV Reverse Transcriptase and Random hexamers reagent (all from Invitrogen). Diluted cDNA was quantified using real-time PCR performed with Power SYBR Green qPCR MasterMix (Applied Biosystem) and 7500 real-time PCR system (Applied Biosystems). The HPRT1 gene was used as an internal control.

TXNIP-TRX complex = molecular target: T2, TXNIP-TRX complex (Homo sapiens, UniProt Q9H3M7); experiment: Co-IP using extracts from high glucose treated THP1 cells in the presence of compounds; type: biochemical; settings: extracts of THP1 cells treated with 25 mM glucose 3 days; compounds added to extract (5 uM)
T2 construct: Co-immunoprecipitation (Co-IP) of TXNIP with TRX in THP 1 monocytes cells treated with compounds under high glucose condition; endogenous in cells; host or cells: THP1 human monocytes cultured in 25 mM glucose
T2 sequence (Q9H3M7 1-391): T1 sequence (Q9H3M7 1-391)
Procedure: Assay 2: Co-IP using extracts from THP 1 cells treated high glucose and in the presence of compounds. In this assay, TXNIP is already highly expressed (because the cells are treated with HG), we assume there is high concentration of TXNIP/TRX complexes in the cell extract. Co-IPs were done in these extracts through adding TRX antibody and compounds. If a compound is able to break the (pre-formed) TXNIP/TRX complex, there will be a reduced signal (band intensity) in the assay.
Co-IP with THP1 high glucose treated extract in the presence of the compounds. THP1 cells were treated with 25 mM glucose for 3 days, the cell extract were prepared. Them 300 ul extract were used for TP. Compounds were added to 5 uM Co-IP were followed according to the Co-IP protocol.
1. Transfer the cultured cells from the culture dish to a 15-mL conical tube. 2. Centrifuge at 500×g for 2 min at 4° C. and remove the supernatant. 3. Wash with ice-cold PBS and centrifuge at 500×g for 2 min at 4° C. Remove the supernatant. 4. Repeat Step 3 twice.
5. Resuspend the cell pellet in ice-cold cell lysis buffer (1 mL per 1×10^7 cells) and incubate on ice for 10 min. 6. […]
Note: Pre-clearing the lysate is recommended to reduce the non-specific binding. However, if the protein is detected by western blotting, pre-clearing may not be necessary unless a contaminating protein is interfering with visualization of the protein of interest. […]

protection of purified TXNIP from proteolysis (purified TXNIP): protects purified TXNIP from proteolysis
SMILES: CC(C)C(C(=O)O)N1C(=O)c2ccncc2C1=O (stereo not drawn) [Compound C1, 2-(1,3-dioxo-1,3-dihydro-2H-pyrrolo[3,4-c]pyridin-2-yl)-3-methylbutanoic acid]
TXNIP mRNA (TXNIP mRNA): targets TXNIP mRNA; also recorded: efficiently inhibited TXNIP mRNA | effect on pre-formed TXNIP/TRX complex (co-IP band intensity) (TXNIP-TRX complex): inhibit high glucose-induced TXNIP-TRX co-immunoprecipitation in cell extracts; also recorded: reproducibly can affect TXNIP/TRX complex
